Source: article PMC9452538, “The antimicrobial peptide LI14 combats multidrug-resistant bacterial infections” (Communications Biology, 2022)
≈ marks a conversion by molar mass, not a printed value.

What was measured:
MDR E. coli B2 = assay: Checkerboard assay with LI14; type: cell-based, Escherichia coli; settings: for FIC index: antibiotic in combination with LI14, checkerboard 8 × 8, 18 h, ≤0.5 = synergy; for Potentiation: antibiotic potentiation in the presence of ¼ MIC of LI14; for MICa of antibiotic: in the absence of LI14; for MICb of antibiotic: in the presence of ¼ MIC of LI14
Procedure: (§1) Through checkerboard assay using two-fold serially diluted drugs (8 × 8 matrix), we evaluated the synergistic effects of LI14 with different mechanisms of antibiotics. The absorbance of cultures at 600 nm was determined by a Microplate reader after 18 h of incubation with (1.5 × 10^6 CFUs/mL) bacterial suspension. The FIC index (FICI) was calculated by performing two biological replicates for each combination. The formula is as follows: FIC index = FICIa + FICIb = MICab/MICa + MICba/Mb. An FIC index of ≤0.5 indicates synergy.
(§2) a/bMICs of antibiotics in the absence or presence of ¼ MIC of LI14.
(§3) cDegree of antibiotics potentiation in the presence of ¼ MIC of LI14.
(§4) –, none of potentiation activity.

[1] = system: sensitive E. coli ATCC 25922; assay: Checkerboard assay with LI14; type: cell-based, Escherichia coli; settings: for FIC index: antibiotic in combination with LI14, checkerboard; for MICa of antibiotic: in the absence of LI14
Procedure: as §1, §2, §3, §4

E. coli ATCC 25922 [2] = assay: Resistance development study, serial passages; type: cell-based, Escherichia coli; settings: 80 serial passages at sub-inhibitory concentration (0.5-fold MIC)
Procedure: (§5) The ability of LI14 peptide to induce resistance was studied as previously described. Resistance to the therapeutically important drugs rifampicin and ciprofloxacin was measured using S. aureus ATCC 29213 and E. coli ATCC 25922 as test strains. The middle and final MICs were monitored after eighty such serial passages exposed to the tested medicines (0.5-fold MIC), and the fold change in MIC increase was recorded.

MRSA T144 [3] = assay: Checkerboard assay with LI14; type: cell-based, Staphylococcus aureus
Procedure: as §1, §2, §3, §4

MRSA 1530 = assay: microbe, parasite or virus in culture; type: cell-based, Staphylococcus aureus; settings: Staphylococcus aureus; MRSA 1530; MHB, 16-18 h, 37 °C; read-out: MIC
Procedure: (§6) An antimicrobial activity study was conducted on all peptides against a panel of laboratory bacteria, including ATCC source and clinical isolates with resistance determinants. According to CLSI2021 guidelines, we tested the minimum inhibitory concentrations (MICs) of peptides using standard broth micro-dilutions. Briefly, bacteria grown to exponential phase were diluted in 1:1000 to MHB, subsequently, equivalent amounts of bacterial suspension (1.5 × 10^6 CFUs/mL) were mixed with different concentrations of peptides in a sterilized 96-well microtiter plate (Corning).

MRSA 1518 = assay: microbe, parasite or virus in culture; type: cell-based, Staphylococcus aureus; settings: Staphylococcus aureus; MRSA 1518; MHB, 16-18 h, 37 °C; read-out: MIC
Procedure: as §6

[4] = system: E. coli DH5α (PUC19-tet(X4)); assay: MIC broth microdilution; type: cell-based; settings: Escherichia coli
Procedure: as §6

P. aeruginosa PA14 = assay: microbe, parasite or virus in culture; type: cell-based, Pseudomonas aeruginosa; settings: Pseudomonas aeruginosa; P. aeruginosa PA14; MHB, 16-18 h, 37 °C; read-out: MIC
Procedure: as §6

[5] = system: E. faecalis A4 (VRE, VanA); assay: microbe, parasite or virus in culture; type: cell-based; settings: Enterococcus faecalis; E. faecalis A4 (VRE, VanA); MHB, 16-18 h, 37 °C; read-out: MIC
Procedure: as §6

[6] = system: S. enteritidis ATCC 13076; assay: microbe, parasite or virus in culture; type: cell-based; settings: Salmonella enterica; S. enteritidis ATCC 13076; MHB, 16-18 h, 37 °C; read-out: MIC
Procedure: as §6

E. faecalis 1F-1 = assay: microbe, parasite or virus in culture; type: cell-based; settings: Enterococcus faecalis, 1F1; E. faecalis 1F-1; MHB, 16-18 h, 37 °C; read-out: MIC
Procedure: as §6

A. baumannii ATCC 19609 = assay: microbe, parasite or virus in culture; type: cell-based, Acinetobacter baumannii; settings: Acinetobacter baumannii, ATCC19609; A. baumannii ATCC 19609; MHB, 16-18 h, 37 °C; read-out: MIC
Procedure: as §6

[7] = system: A. baumannii C222 (tet(X6)); assay: microbe, parasite or virus in culture; type: cell-based, Acinetobacter baumannii; settings: Acinetobacter baumannii
Procedure: as §6

E. coli DH5α (PUC19) = assay: MIC broth microdilution; type: cell-based, Escherichia coli; settings: Escherichia coli; engineered E. coli DH5α (PUC19); MHB, 16-18 h, 37 °C; read-out: MIC
Procedure: as §6

[8] = system: E. coli DH5α (PUC19-mcr-1); assay: MIC broth microdilution; type: cell-based, Escherichia coli; settings: Escherichia coli
Procedure: as §6

[9] = system: P. cibarius HNCF44W (blaNDM-1 + tet(X6)); assay: organism not typed; type: cell-based; settings: P. cibarius HNCF44W (blaNDM-1 + tet(X6)); MHB, 16-18 h, 37 °C; read-out: MIC
Procedure: as §6

S. aureus G16 (RIF^R) = assay: MIC broth microdilution; type: cell-based, Staphylococcus aureus; settings: Staphylococcus aureus
Procedure: as §6

[10] = system: S. aureus 215 (cfr + LZD^R); assay: MIC broth microdilution; type: cell-based, Staphylococcus aureus; settings: Staphylococcus aureus
Procedure: as §6

E. coli C3 (blaNDM-1) = assay: microbe, parasite or virus in culture; type: cell-based, Escherichia coli; settings: Escherichia coli; E. coli C3 (blaNDM-1); MHB, 16-18 h, 37 °C; read-out: MIC
Procedure: as §6

E. coli 1F28 (tet(X4)) = assay: microbe, parasite or virus in culture; type: cell-based, Escherichia coli; settings: Escherichia coli; E. coli 1F28 (tet(X4)); MHB, 16-18 h, 37 °C; read-out: MIC
Procedure: as §6

E. coli G92 (mcr-1) = assay: microbe, parasite or virus in culture; type: cell-based, Escherichia coli; settings: Escherichia coli
Procedure: as §6

E. coli CP131 (mcr-3) = assay: microbe, parasite or virus in culture; type: cell-based, Escherichia coli; settings: Escherichia coli
Procedure: as §6

E. coli G6 (blaNDM-5) = assay: microbe, parasite or virus in culture; type: cell-based, Escherichia coli; settings: Escherichia coli; E. coli G6 (blaNDM-5); MHB, 16-18 h, 37 °C; read-out: MIC
Procedure: as §6

E. coli B3-1 (tet(X4)) = assay: microbe, parasite or virus in culture; type: cell-based, Escherichia coli; settings: Escherichia coli; E. coli B3-1 (tet(X4)); MHB, 16-18 h, 37 °C; read-out: MIC
Procedure: as §6

[11] = system: K. pneumoniae D120 (mcr-8); assay: microbe, parasite or virus in culture; type: cell-based, Klebsiella pneumoniae; settings: Klebsiella pneumoniae; K. pneumoniae D120 (mcr-8); MHB, 16-18 h, 37 °C; read-out: MIC
Procedure: as §6

[12] = system: K. pneumoniae ATCC 700603; assay: microbe, parasite or virus in culture; type: cell-based, Klebsiella pneumoniae; settings: Klebsiella pneumoniae, ATCC700603; K. pneumoniae ATCC 700603; MHB, 16-18 h, 37 °C; read-out: MIC
Procedure: as §6

[13] = system: E. coli B2 (blaNDM-5 + mcr-1); assay: microbe, parasite or virus in culture; type: cell-based, Escherichia coli; settings: Escherichia coli; E. coli B2 (blaNDM-5 + mcr-1); MHB, 16-18 h, 37 °C; read-out: MIC
Summary of the method: (§7)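 Bacteria are grown to exponential phase, diluted 1:1000 in MHB, then combined at 1.5 × 10^6 CFUs/mL with different peptide concentrations. MICs follow standard CLSI2021 broth micro-dilution.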

E. coli ATCC 25922 [14] = assay: microbe, parasite or virus in culture; type: cell-based, Escherichia coli; settings: Escherichia coli, ATCC25922; E. coli ATCC 25922; MHB, 16-18 h, 37 °C; read-out: MIC
Summary of the method: as §7

E. faecium 5F-10 = assay: microbe, parasite or virus in culture; type: cell-based, Enterococcus faecium; settings: Enterococcus faecium, 5F10; E. faecium 5F-10; MHB, 16-18 h, 37 °C; read-out: MIC
Procedure: as §6

S. aureus ATCC 29213 [15] = assay: microbe, parasite or virus in culture; type: cell-based, Staphylococcus aureus; settings: Staphylococcus aureus, ATCC29213; S. aureus ATCC 29213; MHB, 16-18 h, 37 °C; read-out: MIC
Summary of the method: as §7

MRSA T144 [16] = assay: microbe, parasite or virus in culture; type: cell-based, Staphylococcus aureus; settings: Staphylococcus aureus; MRSA T144; MHB, 16-18 h, 37 °C; read-out: MIC
Summary of the method: as §7

E. coli B2 = assay: Neutropenic mouse thigh infection model; type: in vivo, CD-1 mice; settings: RIF 20 mg/kg i.p., 48 h
Procedure: Female CD-1 mice (n = 6 biologically independent animals per group) were first given cyclophosphamide (two consecutive injections of 150 and 100 mg kg^−1 at 4 and 1 day before infection) to construct neutropenia models. The mice’s right thighs were then injected with 100 μL MRSA T144 or E. coli B2 suspensions (10^5 CFUs per mouse). Post-infection of 1 h, 100 μL LI14 peptide (10 or 20 mg/kg), ampicillin/rifampicin (20 mg/kg) or a combination of LI14 with ampicillin/ rifampicin (10 + 20 mg/kg) were given by intraperitoneal injection. All mice were euthanized 48 h after drug administration, and right thigh muscle tissue was removed aseptically, homogenized, serially diluted, and plated on MHA to qualify bacterial loads after overnight incubation at 37 °C.

S. aureus ATCC 29213 [17] = assay: Resistance development study, serial passages; type: cell-based, Staphylococcus aureus; settings: 80 serial passages at sub-inhibitory concentration (0.5-fold MIC)
Procedure: as §5

[18] = serum versus MHB broth medium; cited from earlier work
From the text: Amphiphilicity, ɑ-helicity and appropriate peptide chain length are key factors for AMP activity.

[19] = in the presence of ¼ MIC of LI14

## O=C(O)c1cn(C2CC2)c2cc(N3CCNCC3)c(F)cc2c1=O [Ciprofloxacin]
MDR E. coli B2
  FIC index: 0.188
  Potentiation: 8 fold
  MICa of antibiotic: 32 µg/mL
  MICb of antibiotic: 4 µg/mL
[1]
  FIC index: 1.5
  MICa of antibiotic: 0.008 µg/mL
[1]; [19]
  MICb of antibiotic: 0.008 µg/mL
E. coli ATCC 25922 [2]
  Increase in MIC after serial passages: 256 fold
MRSA T144 [3]; antibiotic in combination with LI14, checkerboard
  FIC index: 2.0
MRSA T144 [3]; in the absence of LI14
  MICa of antibiotic: 2 µg/mL
MRSA T144 [3]; [19]
  MICb of antibiotic: 2 µg/mL

## C[C@@H](O)[C@H]1C(=O)N2C(C(=O)O)=C(S[C@@H]3CN[C@H](C(=O)N(C)C)C3)[C@H](C)[C@H]12 [Meropenem]
MRSA 1530
  MIC: 0.25 µg/mL (≈ 0.652 µM)
MRSA 1518
  MIC: 0.25 µg/mL (≈ 0.652 µM)
[4]
  MIC: < 0.125 µg/mL
P. aeruginosa PA14
  MIC: 32 µg/mL (≈ 83.4 µM)
MDR E. coli B2
  FIC index: 2
  MICa of antibiotic: 32 µg/mL
  MICb of antibiotic: 32 µg/mL
[5]
  MIC: > 64 µg/mL
[6]
  MIC: < 0.0625 µg/mL
E. faecalis 1F-1
  MIC: 8 µg/mL (≈ 20.9 µM)
A. baumannii ATCC 19609
  MIC: < 0.0625 µg/mL
[7]
  MIC: < 0.125 µg/mL
E. coli DH5α (PUC19)
  MIC: < 0.125 µg/mL
[8]
  MIC: < 0.125 µg/mL
[9]
  MIC: > 16 µg/mL
S. aureus G16 (RIF^R)
  MIC: 2 µg/mL (≈ 5.22 µM)
[10]
  MIC: 1 µg/mL (≈ 2.61 µM)
E. coli C3 (blaNDM-1)
  MIC: 8 µg/mL (≈ 20.9 µM)
E. coli 1F28 (tet(X4))
  MIC: 0.25 µg/mL (≈ 0.652 µM)
E. coli G92 (mcr-1)
  MIC: < 0.125 µg/mL
E. coli CP131 (mcr-3)
  MIC: < 0.125 µg/mL
E. coli G6 (blaNDM-5)
  MIC: 64 µg/mL (≈ 167 µM)
E. coli B3-1 (tet(X4))
  MIC: < 0.0625 µg/mL
[11]
  MIC: < 0.0625 µg/mL
[12]
  MIC: < 0.0625 µg/mL
[13]
  MIC: 32 µg/mL
E. coli ATCC 25922 [14]
  MIC: 0.03 µg/mL (≈ 0.0782 µM)
E. faecium 5F-10
  MIC: 8 µg/mL (≈ 20.9 µM)
S. aureus ATCC 29213 [15]
  MIC: < 0.0625 µg/mL
MRSA T144 [16]
  MIC: 1 µg/mL (≈ 2.61 µM)

## CO[C@H]1/C=C/O[C@@]2(C)Oc3c(C)c(O)c4c(O)c(c(/C=N/N5CCN(C)CC5)c(O)c4c3C2=O)NC(=O)/C(C)=C\C=C\[C@H](C)[C@H](O)[C@@H](C)[C@@H](O)[C@@H](C)[C@H](OC(C)=O)[C@@H]1C [Rifampicin]
MDR E. coli B2
  FIC index: < 0.078
  Potentiation: > 64 fold
  MICa of antibiotic: > 128 µg/mL
  MICb of antibiotic: 2 µg/mL
[1]
  FIC index: < 0.078
  MICa of antibiotic: > 128 µg/mL
[1]; [19]
  MICb of antibiotic: 2 µg/mL
  Potentiation: > 64 fold
E. coli B2; animal 1
  Bacterial load in thigh: 6.89 Log10CFUs/thigh
E. coli B2; animal 2
  Bacterial load in thigh: 6.97 Log10CFUs/thigh
E. coli B2; animal 3
  Bacterial load in thigh: 7.76 Log10CFUs/thigh
E. coli B2; animal 4
  Bacterial load in thigh: 7.96 Log10CFUs/thigh
E. coli B2; animal 5
  Bacterial load in thigh: 6.83 Log10CFUs/thigh
E. coli B2; animal 6
  Bacterial load in thigh: 6.97 Log10CFUs/thigh
S. aureus ATCC 29213 [17]
  Increase in MIC after serial passages: 1024 fold

## LL-37: human AMP LL-37, previously reported peptide antibiotic
[18]
  Change of MIC value in serum: greater than 128 fold
